In patent publication US20120202690A1, “HERBICIDAL COMPOUNDS” (SYNGENTA LIMITED, priority 2009, published 2012):

Columns and labels:
Assay type in all cases: in vivo
[1] = system: Alopecurus myosuroides (ALOMY); assay: Pre-emergence biological efficacy, glasshouse, 1000 g/ha, evaluated after 13 days (100=total damage to plant; 0=no damage to plant); conditions: Alopecurus myosuroides, 312 h, rate 1,000 g/ha, read-out: Percentage damage caused to weed species, pre-emergence, ALOMY
Outline: (§1)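 Sowing: standard soil, pots. Growth: glasshouse, 24/16° C. day/night, 14 hours light, 65% humidity. Watering: twice daily.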

[2] = system: Amaranthus retroflexus (AMARE); assay: as above; conditions: Amaranthus retroflexus, 312 h, rate 1,000 g/ha, read-out: Percentage damage caused to weed species, pre-emergence, AMARE
Outline: as §1

[3] = system: Echinochloa crus-galli (ECHCG); assay: as above; conditions: Echinochloa crus-galli, 312 h, rate 1,000 g/ha, read-out: Percentage damage caused to weed species, pre-emergence, ECHCG
Outline: as §1

[4] = system: Ipomoea hederaceae (IPOHE); assay: as above; conditions: Ipomoea, 312 h, rate 1,000 g/ha, read-out: Percentage damage caused to weed species, pre-emergence, IPOHE
Outline: as §1

[5] = system: Setaria faberi (SETFA); assay: as above; conditions: Setaria faberi, 312 h, rate 1,000 g/ha, read-out: Percentage damage caused to weed species, pre-emergence, SETFA
Outline: as §1

[6] = system: Solanum nigrum (SOLNI); assay: as above; conditions: Solanum nigrum, 312 h, rate 1,000 g/ha, read-out: Percentage damage caused to weed species, pre-emergence, SOLNI
Outline: as §1

[7] = system: Alopecurus myosuroides (ALOMY); assay: Post-emergence biological efficacy, glasshouse, 500 or 1000 g/ha, evaluated after 13 days (100=total damage to plant; 0=no damage to plant); conditions: Alopecurus myosuroides, 312 h, rate 1,000 g/ha, read-out: Percentage damage caused to weed species, post-emergence, ALOMY
Outline: (§2)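 Sow seeds in standard potting soil. Treat after emergence. Keep treated plants in the glasshouse at 24° C. by day and 16° C. by night, with a 14-hour photoperiod, 65% humidity and two waterings daily.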

[8] = system: Amaranthus retroflexus (AMARE); assay: as above; conditions: Amaranthus retroflexus, 312 h, rate 1,000 g/ha, read-out: Percentage damage caused to weed species, post-emergence, AMARE
Outline: as §2

[9] = system: Echinochloa crusgaffi (ECHCG); assay: as above; conditions: Echinochloa, 312 h, rate 1,000 g/ha, read-out: Percentage damage caused to weed species, post-emergence, ECHCG
Outline: as §2

[10] = system: Ipomoea hederaceae (IPOHE); assay: as above; conditions: Ipomoea, 312 h, rate 1,000 g/ha, read-out: Percentage damage caused to weed species, post-emergence, IPOHE
Outline: as §2

[11] = system: Setaria faberi (SETFA); assay: as above; conditions: Setaria faberi, 312 h, rate 1,000 g/ha, read-out: Percentage damage caused to weed species, post-emergence, SETFA
Outline: as §2

[12] = system: Solanum nigrum (SOLNI); assay: as above; conditions: Solanum nigrum, 312 h, rate 1,000 g/ha, read-out: Percentage damage caused to weed species, post-emergence, SOLNI
Outline: as §2

| Compound | pest or weed control at 1000 g/ha [1] | pest or weed control at 1000 g/ha [2] | pest or weed control at 1000 g/ha [3] | pest or weed control at 1000 g/ha [4] | pest or weed control at 1000 g/ha [5] | pest or weed control at 1000 g/ha [6] | pest or weed control at 1000 g/ha [7] | pest or weed control at 1000 g/ha [8] | pest or weed control at 1000 g/ha [9] | pest or weed control at 1000 g/ha [10] | pest or weed control at 1000 g/ha [11] | pest or weed control at 1000 g/ha [12] |
| --- | --- | --- | --- | --- | --- | --- | --- | --- | --- | --- | --- | --- |
| COC(=O)c1nc(-c2ccc(Cl)c(OC)c2F)nc2c1c(C)cn2C(=O)OC [Compound 17-64, 2-(4-Chloro-2-fluoro-3-methoxyphenyl)-4,7-di(methoxycarbonyl)-5-methyl-7H-pyrrolo[2,3-d]pyrimidine] | 0% | 0% | 0% | 0% | 0% | 0% | 0% | 0% | 0% | 0% | 0% | 20% |
| CCCCOCC(C)OC(=O)c1nc(-c2ccc(Cl)c(OC)c2F)cc2[nH]cc(C)c12 (stereo not drawn) [Compound 22-84, 4-[(1-n-Butoxy)-prop-2-yloxycarbonyl]-6-(4-chloro-2-fluoro-3-methoxyphenyl)-3-methyl-1H-pyrrolo[3,2-c]pyridine] | 20% | 40% | 20% | 80% | 10% | 70% | 20% | 80% | 20% | 40% | 30% | 90% |
| COC(=O)c1nc(Cl)cc2[nH]cc(Cl)c12 [Compound 22-132, 3,6-dichloro-4-methoxycarbonyl-1H-pyrrolo[3,2-c]pyridine] | 0% | 0% | 0% | 40% | 0% | 10% | 0% | 50% | 0% | 50% | 0% | 60% |
| CCCCOCC(C)OC(=O)c1nc(-c2ccc(Cl)c(OC)c2F)nc2[nH]cc(C)c12 (stereo not drawn) [Compound 1-84, 4-[(1-n-Butoxy)-prop-2-yloxycarbonyl]-2-(4-chloro-2-fluoro-3-methoxyphenyl)-5-methyl-7H-pyrrolo[2,3-d]pyrimidne] | 10% | 20% | 10% | 70% | 10% | 40% | 10% | 60% | 0% | 40% | 10% | 70% |
| CCCCCC(C)OC(=O)c1nc(-c2ccc(Cl)c(OC)c2F)nc2[nH]cc(C)c12 (stereo not drawn) [Compound 1-79, 2-(4-Chloro-2-fluoro-3-methoxyphenyl)-4-(hept-2-yloxycarbonyl)-5-methyl-7H-pyrrolo[2,3-d]pyrimidine] | 0% | 0% | 0% | 0% | 0% | 0% | 0% | 10% | 0% | 20% | 0% | 10% |
| COc1c(Cl)ccc(-c2nc(C(=O)O)c3c(C)cn(Cc4ccc(C(F)(F)F)o4)c3n2)c1F [Compound 12-63, 4-Carboxy-2-(4-chloro-2-fluoro-3-methoxyphenyl)-7-(5-trifluoromethyl-furan-2-yl-methyl)-5-methyl-7H-pyrrolo[2,3-d]pyrimidine] | 0% | 60% | 0% | 10% | 20% | 0% | 0% | 30% | 0% | 50% | 0% | 70% |
